Assay results published in US20080281105A1, “Novel Quinolinium Salts and Derivatives” (IMMUSOL INCORPORATED, priority 2005, published 2008).

Experiments:
[1] = test system: MCF7; experiment: Cell growth in liquid culture (alamarBlue); details: Homo sapiens, MCF7, 72 h, read-out: IC50 (uM) Liquid culture
[2] = test system: HT29; experiment: Cell growth in soft agar culture (alamarBlue); details: Homo sapiens, HT-29, 168 h, read-out: IC50 (uM) Soft agar
[3] = test system: DU145; experiment: Cell growth in liquid culture (alamarBlue); details: Homo sapiens, DU-145, 72 h, read-out: IC50 (uM) Liquid culture
[4] = test system: A2780; experiment: Cell growth in liquid culture (alamarBlue); details: Homo sapiens, A2780, 72 h, read-out: IC50 (uM) Liquid culture
[5] = test system: HCT116-P53(−); experiment: Cell growth in liquid culture (alamarBlue); details: 72 h, read-out: IC50 (uM) Liquid culture
[6] = test system: OVCAR-8; experiment: Cell growth in liquid culture (alamarBlue); details: Homo sapiens, OVCAR-8, 72 h, read-out: IC50 (uM) Liquid culture
[7] = test system: Pc3M/N; experiment: Cell growth in liquid culture (alamarBlue); details: Homo sapiens, PC-3M, 72 h, read-out: IC50 (uM) Liquid culture
[8] = test system: SW480; experiment: Cell growth in soft agar culture (alamarBlue); details: Homo sapiens, SW480, 168 h, read-out: IC50 (uM) Soft agar
[9] = test system: Caov-3; experiment: Cell growth in liquid culture (alamarBlue); details: Homo sapiens, Caov-3, 72 h, read-out: IC50 (uM) Liquid culture
[10] = test system: OVCAR-5; experiment: Cell growth in soft agar culture (alamarBlue); details: Homo sapiens, OVCAR-5, 168 h, read-out: IC50 (uM) Soft agar
[11] = test system: MDA-231; experiment: Cell growth in soft agar culture (alamarBlue); details: Homo sapiens, MDA-MB-231, 168 h, read-out: IC50 (uM) Soft agar
[12] = test system: OVCAR-1; experiment: Cell growth in liquid culture (alamarBlue); details: OVCAR1, 72 h, read-out: IC50 (uM) Liquid culture
[13] = test system: MCF7; experiment: Cell growth in soft agar culture (alamarBlue); details: Homo sapiens, MCF7, 168 h, read-out: IC50 (uM) Soft agar
[14] = test system: UACC257; experiment: Cell growth in soft agar culture (alamarBlue); details: Homo sapiens, UACC-257, 168 h, read-out: IC50 (uM) Soft agar
[15] = test system: A2058; experiment: Cell growth in liquid culture (alamarBlue); details: Homo sapiens, A2058, 72 h, read-out: IC50 (uM) Liquid culture
[16] = test system: T47D; experiment: Cell growth in liquid culture (alamarBlue); details: Homo sapiens, 72 h, read-out: IC50 (uM) Liquid culture
[17] = test system: HS578; experiment: Cell growth in liquid culture (alamarBlue); details: Hs578, 72 h, read-out: IC50 (uM) Liquid culture
[18] = test system: UACC257; experiment: Cell growth in liquid culture (alamarBlue); details: Homo sapiens, UACC-257, 72 h, read-out: IC50 (uM) Liquid culture
[19] = test system: MDA_MB-435; experiment: Cell growth in soft agar culture (alamarBlue); details: Homo sapiens, MDA-MB-435, 168 h, read-out: IC50 (uM) Soft agar
[20] = test system: OVCAR-8; experiment: Cell growth in soft agar culture (alamarBlue); details: Homo sapiens, OVCAR-8, 168 h, read-out: IC50 (uM) Soft agar
[21] = test system: NCI-H460; experiment: Cell growth in liquid culture (alamarBlue); details: Homo sapiens, NCI-H460, 72 h, read-out: IC50 (uM) Liquid culture
[22] = test system: PA-1; experiment: Cell growth in liquid culture (alamarBlue); details: Homo sapiens, PA-1, 72 h, read-out: IC50 (uM) Liquid culture
[23] = test system: HCT116; experiment: Cell growth in liquid culture (alamarBlue); details: Homo sapiens, HCT-116, 72 h, read-out: IC50 (uM) Liquid culture
[24] = test system: PC3; experiment: Cell growth in liquid culture (alamarBlue); details: Homo sapiens, PC-3, 72 h, read-out: IC50 (uM) Liquid culture
[25] = test system: PC3; experiment: Cell growth in soft agar culture (alamarBlue); details: Homo sapiens, PC-3, 168 h, read-out: IC50 (uM) Soft agar
[26] = test system: Panc-1; experiment: Cell growth in liquid culture (alamarBlue); details: Homo sapiens, PANC-1, 72 h, read-out: IC50 (uM) Liquid culture
[27] = test system: SKBR3; experiment: Cell growth in liquid culture (alamarBlue); details: Homo sapiens, SK-BR-3, 72 h, read-out: IC50 (uM) Liquid culture
[28] = test system: UACC62; experiment: Cell growth in liquid culture (alamarBlue); details: Homo sapiens, UACC-62, 72 h, read-out: IC50 (uM) Liquid culture
[29] = test system: CCD112/N; experiment: Cell growth in liquid culture (alamarBlue); details: 72 h, read-out: IC50 (uM) Liquid culture

Measured: IC50

Cc1cc(/C=C/c2ccc3cc(N(C)C)ccc3[n+]2C)c(C)n1-c1ccccc1 [Example 1, Pyrvinium Phosphate]
> 1 µM: [3] | [5] | [7] | [23]
~0.03 µM: [16]
0.1 to 0.3 µM: [6] | [14] | [15] | [17] | [24] | [25] | [28]
< 0.03 µM: [11] | [13]
~0.1 µM: [18]
0.3 to 1 µM: [8] | [26]
0.1 to 0.33 µM: [21]
~1 µM: [27] | [29]
0.03 to 0.1 µM: all other assays above
